# Reference: PubChem BioAssay AID1963835 (Molecular Pharmacology Branch, DTP, NCI, 2024)
# pIC50: −log10 of the molar value.
# System: 699152-130-R-J1-PDC complex spheroid viability
# Experiment: Anticancer human tumor 699152-130-R-J1-PDC patient-derived pancreatic carcinoma cell line growth inhibition [POLQ]
# Conditions: for pIC50: curve of first compound; for viability, T/C: stronger effect = lower value
# How it was run: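 PDC + HUVEC + MSC complex spheroids; POLQ inhibitors ± partner drugs; top conc. at/near clinical Cmax, else 10 microM (SN-38 1 microM), half-log dilutions; 37 degrees C, 5% CO2.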
# [1] = second compound 0.0316 µM, first compound 0.0316 µM
# [2] = second compound 0.0316 µM, first compound 0.1 µM
# [3] = second compound 0.1 µM, first compound 0.0316 µM
# [4] = second compound 0.1 µM, first compound 0.1 µM
# [5] = second compound 0.316 µM, first compound 0.0316 µM
# [6] = second compound 0.316 µM, first compound 0.1 µM
# [7] = second compound 1 µM, first compound 0.0316 µM
# [8] = second compound 1 µM, first compound 0.1 µM
# [9] = second compound 3.16 µM, first compound 0.0316 µM
# [10] = second compound 3.16 µM, first compound 0.1 µM
# [11] = second compound 10 µM, first compound 0.0316 µM
# [12] = second compound 10 µM, first compound 0.1 µM
# [13] = second compound 0.0316 µM, first compound 0.316 µM
# [14] = second compound 0.0316 µM, first compound 1 µM
# [15] = second compound 0.0316 µM, first compound 3.16 µM
# [16] = second compound 0.0316 µM, first compound 10 µM
# [17] = second compound 0.1 µM, first compound 0.316 µM
# [18] = second compound 0.1 µM, first compound 1 µM
# [19] = second compound 0.1 µM, first compound 3.16 µM
# [20] = second compound 0.1 µM, first compound 10 µM
# [21] = second compound 0.316 µM, first compound 0.316 µM
# [22] = second compound 0.316 µM, first compound 1 µM
# [23] = second compound 0.316 µM, first compound 3.16 µM
# [24] = second compound 0.316 µM, first compound 10 µM
# [25] = second compound 1 µM, first compound 0.316 µM
# [26] = second compound 1 µM, first compound 1 µM
# [27] = second compound 1 µM, first compound 3.16 µM
# [28] = second compound 1 µM, first compound 10 µM
# [29] = second compound 3.16 µM, first compound 0.316 µM
# [30] = second compound 3.16 µM, first compound 1 µM
# [31] = second compound 3.16 µM, first compound 3.16 µM
# [32] = second compound 3.16 µM, first compound 10 µM
# [33] = second compound 10 µM, first compound 0.316 µM
# [34] = second compound 10 µM, first compound 1 µM
# [35] = second compound 10 µM, first compound 3.16 µM
# [36] = second compound 10 µM, first compound 10 µM
# 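Further: spheroids exposed to agents for 7 days before viability reading.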
# 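Wherever viability, T/C is given: percent of DMSO vehicle control viability so 100% = vehicle and 0% = no viable signal.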
smiles,measurement,setting,value
Cn1ncnc1[C@H]1c2n[nH]c(=O)c3cc(F)cc(c23)N[C@@H]1c1ccc(F)cc1 + Cc1cccc(N(C)C(=O)C2C(O)CCN2c2nc(C)cc(C(F)(F)F)c2C#N)c1,pIC50,second compound 0.0316 µM,< 7.00
same,pIC50,second compound 0.1 µM,< 7.00
same,pIC50,second compound 0.316 µM,< 7.00
same,pIC50,second compound 1 µM,< 7.00
same,pIC50,second compound 3.16 µM,< 7.00
same,pIC50,second compound 10 µM,< 7.00
same,"viability, T/C","second compound 0.0316 µM, first compound 0.000316 µM",103%
same,"viability, T/C","second compound 0.0316 µM, first compound 0.001 µM",87.7%
same,"viability, T/C","second compound 0.0316 µM, first compound 0.00316 µM",95.1%
same,"viability, T/C","second compound 0.0316 µM, first compound 0.01 µM",88.6%
same,"viability, T/C",[1],99.4%
same,"viability, T/C",[2],81%
same,"viability, T/C","second compound 0.1 µM, first compound 0.000316 µM",100%
same,"viability, T/C","second compound 0.1 µM, first compound 0.001 µM",100%
same,"viability, T/C","second compound 0.1 µM, first compound 0.00316 µM",91.6%
same,"viability, T/C","second compound 0.1 µM, first compound 0.01 µM",99.3%
same,"viability, T/C",[3],85.3%
same,"viability, T/C",[4],86.6%
same,"viability, T/C","second compound 0.316 µM, first compound 0.000316 µM",94.8%
same,"viability, T/C","second compound 0.316 µM, first compound 0.001 µM",97.6%
same,"viability, T/C","second compound 0.316 µM, first compound 0.00316 µM",86.4%
same,"viability, T/C","second compound 0.316 µM, first compound 0.01 µM",89.3%
same,"viability, T/C",[5],117%
same,"viability, T/C",[6],73.6%
same,"viability, T/C","second compound 1 µM, first compound 0.000316 µM",100%
same,"viability, T/C","second compound 1 µM, first compound 0.001 µM",89.6%
same,"viability, T/C","second compound 1 µM, first compound 0.00316 µM",95%
same,"viability, T/C","second compound 1 µM, first compound 0.01 µM",87.2%
same,"viability, T/C",[7],108%
same,"viability, T/C",[8],87.2%
same,"viability, T/C","second compound 3.16 µM, first compound 0.000316 µM",94.1%
same,"viability, T/C","second compound 3.16 µM, first compound 0.001 µM",102%
same,"viability, T/C","second compound 3.16 µM, first compound 0.00316 µM",93.8%
same,"viability, T/C","second compound 3.16 µM, first compound 0.01 µM",95.7%
same,"viability, T/C",[9],93%
same,"viability, T/C",[10],90.7%
same,"viability, T/C","second compound 10 µM, first compound 0.000316 µM",104%
same,"viability, T/C","second compound 10 µM, first compound 0.001 µM",81.8%
same,"viability, T/C","second compound 10 µM, first compound 0.00316 µM",97.1%
same,"viability, T/C","second compound 10 µM, first compound 0.01 µM",88.5%
same,"viability, T/C",[11],101%
same,"viability, T/C",[12],83.5%
CC1COCCN1c1cc(-c2ccnn2C)c2ccnc(-c3ccn[nH]3)c2n1 (stereo unspecified) + Cc1cccc(N(C)C(=O)C2C(O)CCN2c2nc(C)cc(C(F)(F)F)c2C#N)c1,pIC50,second compound 0.0316 µM,5.63
same,pIC50,second compound 0.1 µM,< 5.00
same,pIC50,second compound 0.316 µM,5.40
same,pIC50,second compound 1 µM,5.29
same,pIC50,second compound 3.16 µM,< 5.00
same,pIC50,second compound 10 µM,< 5.00
same,"viability, T/C",[1],98.3%
same,"viability, T/C",[2],99.1%
same,"viability, T/C",[13],74.4%
same,"viability, T/C",[14],58%
same,"viability, T/C",[15],47.8%
same,"viability, T/C",[16],45.4%
same,"viability, T/C",[3],93.9%
same,"viability, T/C",[4],90.3%
same,"viability, T/C",[17],75.2%
same,"viability, T/C",[18],59.4%
same,"viability, T/C",[19],62.2%
same,"viability, T/C",[20],56.1%
same,"viability, T/C",[5],92.2%
same,"viability, T/C",[6],86.8%
same,"viability, T/C",[21],75.5%
same,"viability, T/C",[22],58.6%
same,"viability, T/C",[23],46.3%
same,"viability, T/C",[24],51.8%
same,"viability, T/C",[7],107%
same,"viability, T/C",[8],89%
same,"viability, T/C",[25],70.9%
same,"viability, T/C",[26],59%
same,"viability, T/C",[27],50.2%
same,"viability, T/C",[28],48.8%
same,"viability, T/C",[9],109%
same,"viability, T/C",[10],108%
same,"viability, T/C",[29],69.4%
same,"viability, T/C",[30],55.2%
same,"viability, T/C",[31],51.1%
same,"viability, T/C",[32],51.3%
same,"viability, T/C",[11],94.7%
same,"viability, T/C",[12],86.5%
same,"viability, T/C",[33],75.8%
same,"viability, T/C",[34],65.4%
same,"viability, T/C",[35],52.6%
same,"viability, T/C",[36],53.8%
CC1COCCN1c1cc(C2(S(C)(=N)=O)CC2)nc(-c2ccnc3[nH]ccc23)n1 (stereo unspecified) + Nc1ccc(C#CCN(C(=O)Cc2ncc(C(F)(F)F)cc2C(F)(F)F)c2ccc(F)cc2)nn1,pIC50,second compound 0.0316 µM,< 5.00
same,pIC50,second compound 0.1 µM,< 5.00
same,pIC50,second compound 0.316 µM,< 5.00
same,pIC50,second compound 1 µM,< 5.00
same,pIC50,second compound 3.16 µM,< 5.00
same,pIC50,second compound 10 µM,< 5.00
same,"viability, T/C",[1],109%
same,"viability, T/C",[2],100%
same,"viability, T/C",[13],89.4%
same,"viability, T/C",[14],88.7%
same,"viability, T/C",[15],75.8%
same,"viability, T/C",[16],68.9%
same,"viability, T/C",[3],106%
same,"viability, T/C",[4],92.7%
same,"viability, T/C",[17],96.6%
same,"viability, T/C",[18],97.6%
same,"viability, T/C",[19],76.2%
same,"viability, T/C",[20],62.3%
same,"viability, T/C",[5],104%
same,"viability, T/C",[6],113%
same,"viability, T/C",[21],110%
same,"viability, T/C",[22],94.4%
same,"viability, T/C",[23],80.1%
same,"viability, T/C",[24],68.9%
same,"viability, T/C",[7],114%
same,"viability, T/C",[8],96.1%
same,"viability, T/C",[25],99.9%
same,"viability, T/C",[26],86%
same,"viability, T/C",[27],74.7%
same,"viability, T/C",[28],66.1%
same,"viability, T/C",[9],108%
same,"viability, T/C",[10],93.4%
same,"viability, T/C",[29],123%
same,"viability, T/C",[30],113%
same,"viability, T/C",[31],88.1%
same,"viability, T/C",[32],76.6%
same,"viability, T/C",[11],110%
same,"viability, T/C",[12],105%
same,"viability, T/C",[33],106%
same,"viability, T/C",[34],95.5%
same,"viability, T/C",[35],82.6%
same,"viability, T/C",[36],77.2%
